Assay results published in patent US6893846B2, “Primers for use in detecting beta-lactamases” (priority 1998, dated 2005).

What was measured:
[1] = tested on: E. coli; test: Agar dilution MIC, South African isolates; assay type: cell-based, Escherichia coli; settings: tzp with tazobactam 4 μg/ml
Source text: The strains were provided in response to a request for all strains of Enterobacteriaceae, lacking inducible beta-lactamases, that were intermediate or resistant to cefotaxime or ceftazidime. […]

[2] = tested on: E. coli C600 transconjugant; settings: disk diffusion, Tc = transconjugate E. coli C600
[3] = biological target: single beta-lactamase in K. pneumoniae cell extracts (Escherichia coli, UniProt P62593, E102K/R162S); test: Spectrophotometric hydrolysis assay on crude beta-lactamase extracts; settings: K. pneumoniae Pit 16 extract, beta-lactamase pI 5.6; 100 μM substrate
[4] = biological target: single beta-lactamase in K. pneumoniae cell extracts (Klebsiella pneumoniae, UniProt P0AD64, E235K/G234S); test: as above; settings: K. pneumoniae Pit 82 extract, beta-lactamase pI 8.2; 100 μM substrate
[5] = biological target: single beta-lactamase in K. pneumoniae cell extracts (Klebsiella pneumoniae, UniProt P0AD64, G234S); test: as above; settings: K. pneumoniae Pit 100 extract, beta-lactamase pI 7.6; 100 μM substrate
[6] = biological target: beta-lactamases in sonic extracts of E. coli (Escherichia coli, UniProt P62593); test: Isoelectric focusing overlay: cefotaxime hydrolysis and inhibitors; settings: 0.75 μg/ml cefotaxime
[7] = tested on: beta-lactamases in sonic extracts of E. coli; test: as above; settings: 0.75 μg/ml cefotaxime
[8] = tested on: E. coli C600N transconjugants; test: Susceptibility of transconjugants; assay type: cell-based, Escherichia coli; settings: E. coli C600N transconjugants of E. aerogenes 187, 200, 220, 184

CO/N=C(\C(=O)N[C@@H]1C(=O)N2C(C(=O)O)=C(COC(C)=O)CS[C@H]12)c1csc(N)n1 [cefotaxime]
MIC range ([1]; resistance phenotype Ec1, 3 strains): 1 µg/mL | MIC range ([1]; resistance phenotype Ec2, 1 strain): 16 µg/mL | Zone Size [2]: 12 mm | Hydrolysis [3]: 4 nmol of substrate hydrolyzed/m | Hydrolysis [4]: 11 nmol of substrate hydrolyzed/m | Hydrolysis [5]: 11 nmol of substrate hydrolyzed/m | ctx hydrolysis ([6]; Ec1, beta-lactamase pI 5.4 (TEM-1)): No | ctx hydrolysis ([6]; Ec2, beta-lactamase pI 5.4 (TEM-1)): No | ctx hydrolysis ([7]; Ec1, beta-lactamase pI 5.6 (TEM-10 or 26)): Yes | ctx hydrolysis ([7]; Ec2, beta-lactamase pI 7.6 (SHV-2 or 8)): Yes | susceptibility after transfer of plasmids encoding SHV beta-lactamase genes [8]: decreased susceptibility
